Tested on: SUP-B15 cells
Test: Efficacy study in the SUP-B15 subcutaneous xenograft model
Assay type: in vivo
Conditions: for TGI (%): after 21 days of administration
Procedure: SUP-B15 cells, a Philadelphia chromosome-positive acute lymphoblastic leukemia cell line, were cultured in vitro using IMDM medium supplemented with 20% fetal bovine serum. When the cell count reached the required level, the cells were harvested, counted, and inoculated.
Animals: NCG mice, female, aged 6-8 weeks, weighing 18-22 grams. A total of 35 mice (including 15 spare mice) were used. The mice were provided by Jiangsu GemPharmatech Co., Ltd. or other qualified suppliers.
Tumor inoculation: 0.1 mL (10×10^6 cells) SUP-B15 cells and 0.1 mL Matrigel (total volume 0.2 mL) were mixed thoroughly and subcutaneously inoculated into the right back of each mouse.
Animal grouping and dosing: Grouping and dosing began when the average tumor volume reached 150-200 mm^3.
Animal Grouping: Animals were weighed and tumor volumes were measured prior to drug administration. Grouping was performed randomly based on tumor volume.
Observation: Daily monitoring of animal health status and mortality, routine checks include observing tumor growth and the impact of drug treatment on daily behavioral performance such as activity levels, food and water intake, weight changes (measured twice a week or every other day), external signs, or other abnormalities. The number of animal deaths and side effects within each group based on the number of animals in each group were recorded.
Test indicators: The test indicators were to examine whether tumor growth is inhibited, delayed, or cured. Tumor diameter was measured three times a week using a vernier caliper. The formula for calculating tumor volume was: V = 0.5a × b^2, where a and b represent the long and short diameters of the tumor, respectively.
The antitumor efficacy of the compounds was evaluated using TGI (%) or the relative tumor proliferation rate T/C (%). TGI (%) reflects the tumor growth inhibition rate.
Relative Tumor Proliferation Rate T/C (%): The calculation formula is as follows: T/C % = TRTV / CRTV × 100% (TRTV: treatment group RTV; CRTV: negative control group RTV). The relative tumor volume (RTV) is calculated based on tumor measurement results, with the formula RTV = Vt / V0, where V0 is the average tumor volume measured at the time of grouping (i.e., d0), and Vt is the average tumor volume at a specific measurement time. TRTV and CRTV use data from the same day.
At the end of the test, tumor weight will be measured, and the Tweight/Cweight percentage will be calculated, where Tweight and Cweight represent the tumor weights of the treatment group and the vehicle control group, respectively.
Data analysis: T-test is used for comparisons between two groups. One-way ANOVA is used for comparisons among three or more groups. […] All data analyses are performed using SPSS 17.0. A p < 0.05 is considered statistically significant.

Compound: O=C(Nc1ccc(OC(F)(F)Cl)cc1)c1cnc(N2CC[C@@H](F)C2)c(-c2cnccn2)c1 [Compound A, (R)-N-(4-(chlorodifluoromethoxy)phenyl)-6-(3-fluoropyrrolidin-1-yl)-5-(pyrazin-2-yl)nicotinamide]
- TGI (%) (5 mg/kg p.o. qd): 119.5%
- TGI (%) (15 mg/kg p.o. qd): 124.7%
- TGI (%) (45 mg/kg p.o. qd): 125.6%
- weight loss (any treatment group (5, 15, 45 mg/kg p.o. qd × 3 weeks)): No significant weight loss
